Common to all, as to test: DTP human tumour cell line panel, 48 h
In assay [1] the test system is A498.
Assay [2] concerns MOLT-4.
The subject of assay [3] is UACC-257.
The test system of assay [4] is RPMI-8226.
Assay [5] relates to SK-OV-3.
In assay [6] the test system is MDA-MB-435.
The subject of assay [7] is SNB-19.
Assay [8] relates to KM12.
Assay [9] relates to SF-539.
Assay [10] concerns COLO 205.
Assay [11] deals with MDA-MB-231.
The subject of assay [12] is HOP-92.
In assay [13] the test system is OVCAR-8.
The test system of assay [14] is OVCAR-5.
Assay [15] concerns SF-295.
The test system of assay [16] is MCF7.
In assay [17] the test system is NCI-H460.
The test system of assay [18] is K562.
In assay [19] the test system is SNB-75.
In assay [20] the test system is SR.

From ChEMBL document CHEMBL1201862, “PubChem BioAssay data set” (2004) come the findings set out here.

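Tested at 5 concentrations; 48 h exposure; 96-well plates; endpoints linearly interpolated, else capped at highest concentration. The concentration for 50% growth inhibition is given as GI50.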 Active and inactive are the calls of the source. Cut-off read from the data, not from the text of the source: active = GI50 up to about 1.1 µM and inactive = higher.

For orientation: GI50 means the concentration giving 50% growth inhibition.

For the compound `CSc1nc(-c2ccccc2)[nH]c(=O)n1`, the GI50 in assay [1], in assay [2], in assay [3], in assay [4], in assay [5] and in assay [6] was > 100 µM (inactive) throughout. Besides, the GI50 in assay [7], in [8], in assay [9], in [10], in assay [11] and in assay [12] was > 100 µM (inactive) throughout. Besides, the GI50 in [13], in assay [14], in assay [15] and in assay [16] was > 100 µM (inactive) in each case.
For the compound `CC1(C)CC(=O)C(CC(C(=O)C(=O)Nc2cc(C(F)(F)F)ccc2Cl)C(=O)c2ccco2)C(=O)C1` (stereo not drawn), the GI50 in [1] was 46.9 µM (inactive); in [2] it was > 100 µM (inactive); in assay [3] it was > 100 µM (inactive); in [4] it was > 100 µM (inactive); in assay [17], > 100 µM (inactive); in [5], > 100 µM (inactive). Moreover, the GI50 in assay [6], in assay [7], in assay [8], in assay [9], in assay [10] and in assay [11] was > 100 µM (inactive) throughout. In addition, the GI50 in assay [12], in [13], in [14], in [15], in [18] and in assay [16] was > 100 µM (inactive) throughout.
Turning to `CC1=C(C)SC(=C2Sc3c(n(C)c(=O)n(C)c3=O)S2)S1`, the GI50 in assay [1] was 27.4 µM (inactive); in [2], > 100 µM (inactive); in [3] it was > 100 µM (inactive); in assay [4] it was > 100 µM (inactive); in assay [17], 30.5 µM (inactive); in [5], 15.5 µM (inactive). Besides, the GI50 in assay [6] is 98.6 µM (inactive); in [7], 32.3 µM (inactive); in [8], > 100 µM (inactive); in assay [19], 20.7 µM (inactive); in assay [9], 13.2 µM (inactive); in assay [10], 89.9 µM (inactive). Also, the GI50 in assay [11] was 22.7 µM (inactive); in assay [12], 53.7 µM (inactive); in assay [13], 23.6 µM (inactive); in assay [14], > 100 µM (inactive); in assay [15] it was 28.7 µM (inactive); in assay [18], 62.7 µM (inactive). For the same compound, the GI50 in [16] was > 100 µM (inactive).
For the compound `CC1CC[C@@]2(OC1)O[C@H]1[C@H](O)[C@H]3[C@@H]4CC[C@H]5C[C@@H](OC6OC(CO)C(OC7OC(CO)C(O)C(OC8OCC(O)C(O)C8O)C7OC7OC(CO)C(O)C(O)C7OC7OC(CO)C(O)C(O)C7O)C(O)C6O)[C@H](O)C[C@]5(C)[C@H]4CC[C@]3(C)[C@H]1[C@@H]2C` (stereo partly drawn), the GI50 was > 10 µM (inactive) in assay [1]; 0.144 µM (active) in [2]; > 10 µM (inactive) in assay [3]; 2.15 µM (inactive) in assay [4]; > 10 µM (inactive) in assay [17]; > 10 µM (inactive) in assay [6]. For the same compound, the GI50 in assay [7] is 9.35 µM (inactive); in assay [8], 4.29 µM (inactive); in assay [19], 3.1 µM (inactive); in assay [9] it was 9.46 µM (inactive); in [10] it was > 10 µM (inactive); in [11], 2.61 µM (inactive). Besides, the GI50 in [12] is > 10 µM (inactive); in assay [13], > 10 µM (inactive); in assay [14], > 10 µM (inactive); in assay [18], 1.77 µM (inactive); in [16], 2.82 µM (inactive).
For the compound `CC1(C)S[C@@H]2[C@H](N3C(=O)c4ccccc4C3=O)CN2[C@H]1NC(=O)N[C@@H]1N2C[C@@H](N3C(=O)c4ccccc4C3=O)[C@H]2SC1(C)C`, the GI50 in assay [1] is > 100 µM (inactive); in [2], > 100 µM (inactive); in assay [4], > 100 µM (inactive); in assay [17], > 100 µM (inactive); in assay [5] it was 80.9 µM (inactive); in [6], > 100 µM (inactive). The GI50 in [7] is 43.2 µM (inactive); in assay [8], > 100 µM (inactive); in [19], 58.2 µM (inactive); in assay [9], 55.1 µM (inactive); in assay [10] it was > 100 µM (inactive); in assay [11], 52.7 µM (inactive). For the same compound, the GI50 was 42.2 µM (inactive) in [12]; 58.3 µM (inactive) in assay [13]; > 100 µM (inactive) in assay [14]; 75.7 µM (inactive) in assay [15]; > 100 µM (inactive) in assay [18]; > 100 µM (inactive) in assay [16].
Regarding `COc1cccc([C@@H]2C/C(=N\NC(=O)C(=O)N[C@@H](C)c3ccccc3)c3cc4c(cc3N2)OCO4)c1`, the GI50 in [1] was 47.4 µM (inactive); in [2] it was 21 µM (inactive); in [3], 15.8 µM (inactive); in [4], 30.5 µM (inactive); in assay [5], > 100 µM (inactive); in [6], 2.28 µM (inactive). Moreover, the GI50 was 35 µM (inactive) in [7]; 6.89 µM (inactive) in assay [8]; 22.5 µM (inactive) in assay [19]; 23.8 µM (inactive) in assay [9]; 25.5 µM (inactive) in assay [10]; 67.5 µM (inactive) in [11]. The GI50 is > 100 µM (inactive) in assay [12]; > 100 µM (inactive) in [14]; 36.6 µM (inactive) in [15]; 13.2 µM (inactive) in assay [18]; 8.32 µM (inactive) in [16].
As for `COc1cc(/C=C2/C(=O)N(C(=O)c3ccccc3O)N=C2C)cc(OC)c1OC`, the GI50 is 0.473 µM (active) in assay [1]; 0.887 µM (active) in assay [2]; 4.9 µM (inactive) in assay [3]; > 22.2 µM (inactive) in assay [4]; 1.43 µM (inactive) in assay [17]; 2.47 µM (inactive) in [5]. For the same compound, the GI50 in assay [6] was 0.863 µM (active); in assay [7], 1.44 µM (inactive); in assay [8], 0.455 µM (active); in [19], 1.84 µM (inactive); in [9] it was 0.839 µM (active); in [10], 34.4 µM (inactive). For the same compound, the GI50 in assay [11] was 23.5 µM (inactive); in assay [12] it was 1.07 µM (active); in assay [13], 1.67 µM (inactive); in assay [14] it was 11.7 µM (inactive); in assay [15], 1.16 µM (inactive); in assay [18], 0.393 µM (active). Also, the GI50 in assay [16] is 0.753 µM (active).
For `CN(C)C1(N(C)C)Oc2c(c(=O)n(C)c(=O)n2C)C(c2ccc(C(F)(F)F)cc2)C1(F)F` (stereo not drawn), the GI50 in assay [1], in [3], in [4], in assay [17], in [5] and in assay [6] was > 100 µM (inactive) throughout. In addition, the GI50 in [7], in assay [8], in [19], in assay [10], in assay [11] and in assay [12] was > 100 µM (inactive) each time. The GI50 in [14], in assay [15], in [18] and in assay [16] was > 100 µM (inactive) in each case.
With `COc1ccc(N(CN2C(=O)CCC2C(=O)O)C(C)=O)cc1` (stereo not drawn), the GI50 is > 100 µM (inactive) in assay [1]; 65.5 µM (inactive) in assay [2]; > 100 µM (inactive) in assay [3]; > 100 µM (inactive) in assay [4]; > 100 µM (inactive) in [17]; > 100 µM (inactive) in assay [5]. Also, the GI50 in assay [6], in assay [7], in [8], in [19], in [9] and in [10] was > 100 µM (inactive) each time. The GI50 in [11], in assay [12], in [13], in assay [14], in assay [15] and in assay [18] was > 100 µM (inactive) in each case. Moreover, the GI50 in assay [16] was > 100 µM (inactive).
As for `COC(=O)C1c2cc3c(c(O)c2CCC1(C)O)C(=O)c1c(O)cc2c(c1C3=O)OC1OC2(C)C(O)C(N(C)C)C1O` (stereo not drawn), the GI50 in [2] is 0.121 µM (active); in [3] it was 0.108 µM (active); in [17] it was 0.452 µM (active); in assay [5], 1.91 µM (inactive); in assay [6], 1.01 µM (active); in [20], < 0.01 µM (active). Besides, the GI50 was 0.221 µM (active) in assay [7]; 0.345 µM (active) in assay [8]; 0.198 µM (active) in assay [19]; 1.4 µM (inactive) in assay [9]; 0.36 µM (active) in assay [10]; 0.207 µM (active) in assay [11]. The GI50 in assay [13] was 0.101 µM (active); in assay [14] it was 0.263 µM (active); in assay [15], 0.382 µM (active); in assay [18], 0.223 µM (active); in [16], 0.8 µM (active).
For `CC(C)C1OC(N)=C(C#N)C1(C#N)C#N` (stereo not drawn), the GI50 in assay [1] was > 100 µM (inactive); in assay [3], 17.1 µM (inactive); in [4], 29 µM (inactive); in [5] it was > 100 µM (inactive); in [6] it was 29.6 µM (inactive); in [7], 46.8 µM (inactive). Besides, the GI50 in assay [8] was > 100 µM (inactive); in assay [19] it was 33.8 µM (inactive); in assay [9] it was 44.7 µM (inactive); in assay [10] it was 18.2 µM (inactive); in [11], > 100 µM (inactive); in [12], 31.3 µM (inactive). Moreover, the GI50 in [13] was 41.9 µM (inactive); in [14] it was > 100 µM (inactive); in assay [15], > 100 µM (inactive); in assay [18], 8.49 µM (inactive); in assay [16], 69.7 µM (inactive).
